Reference: patent US10065957B2, “Beta-lactamase inhibitors” (Novartis AG, priority 2016, dated 2018)
Converted amounts (≈) assume the structure as drawn.

Assays:
Format in all cases: cell-based
[1] = system: Enterobacter cloacae NB25044 (CTX-M-12, ACT, KPC-2); details: AZ + BLI at 2 μg/mL
Protocol: (§1) MICs were determined by the broth microdilution method in accordance with Clinical and Laboratories Institute (CLSI) guidelines. In brief, fresh overnight bacterial cultures were suspended in sterile saline, and adjusted to a 0.5 McFarland turbidity standard. Bacterial suspensions were then diluted in cation adjusted Mueller-Hinton Broth (MHB II; BBL) to yield a final inoculum of approximately 5×10^5 colony-forming units (CFU)/mL. A master plate of antibiotics was prepared at a concentration equivalent to hundred-fold the highest desired final concentration in 100% dimethyl sulfoxide (DMSO). The master antibiotic plate was then diluted by serial twofold dilution with a multichannel pipette. The resulting dilution series of compounds were diluted 1:10 with sterile water or a solution of beta-lactamase inhibitor prepared at a concentration equivalent to eleven-fold the desired final concentration in deionized water leading to a 10% DMSO final concentration. A volume of 10 μL of the drug dilution series was transferred to 96-well assay plates. Assay plates were inoculated with 90 μL of bacterial suspensions and incubated at 35° C. for 20 hrs. The assay plates were read using a microtiter plate reader (Molecular Devices) at 600 nm as well as by visual observation with a reading mirror. The lowest concentration of the compound that prevented visible growth was recorded as the MIC.
(§2) Synergy or potentiation of beta-lactam antibiotics through inhibition of Q-lactamases was assessed against an isogenic panel of E. coli strains, each expressing a unique beta-lactamase, and against clinical strains.

[2] = system: K. pneumoniae NB29323 (CTX-M-15, OXA-48, VEB-1); details: AZ + BLI at 2 μg/mL
Protocol: as §1, with “MIC. Performance of the assay was monitored by testing aztreonam against laboratory quality control strains in accordance with guidelines of the CLSI.” for “MIC.”
as §2

K. pneumoniae ATCC 43816 = test: MIC by broth microdilution, BLI alone; details: Klebsiella pneumoniae, ATCC43816, read-out: Minimal Inhibitory Concentrations (MIC) of selected BLIs
Protocol: as §1, with “MIC. Performance of the assay was monitored by testing aztreonam against laboratory quality control strains in accordance with guidelines of the CLSI.” for “MIC.”

P. aeruginosa ATCC 27853 = test: MIC by broth microdilution, BLI alone; details: Pseudomonas aeruginosa, ATCC27853, read-out: Minimal Inhibitory Concentrations (MIC) of selected BLIs
Protocol: as §1, with “MIC. Performance of the assay was monitored by testing aztreonam against laboratory quality control strains in accordance with guidelines of the CLSI.” for “MIC.”

E. coli ATCC 25922 = test: MIC by broth microdilution, BLI alone; details: Escherichia coli, ATCC25922, read-out: Minimal Inhibitory Concentrations (MIC) of selected BLIs
Protocol: as §1, with “MIC. Performance of the assay was monitored by testing aztreonam against laboratory quality control strains in accordance with guidelines of the CLSI.” for “MIC.”

E. coli (OXA-18) = test: microbe, parasite or virus in culture; details: for MIC of aztreonam with beta-lactamase inhibitor: AZ + BLI at 2 μg/mL; for Activity of Beta-Lactam 5 with beta-lactamase inhibitor: Beta-Lactam 5 + BLI at 2 μg/mL; for MIC of ceftazidime with beta-lactamase inhibitor: Ceft + BLI at 2 μg/mL; for MIC of meropenem with beta-lactamase inhibitor: Mero + BLI at 2 μg/mL; for MIC of piperacillin with beta-lactamase inhibitor: Pip + BLI at 2 μg/mL
Protocol: as §1, §2
Construction of E. coli isogenic strains, NB27273-CDY0105 (OXA-18) and NB27273-CDY0048 (TEM-10). […] The gene encoding OXA-18 was then digested with XhoI and EcoRI and inserted into this vector, from which the gene for GIM-1 had been removed with XhoI and EcoRI.
These final vectors for expression of OXA-18 and TEM-10 were transformed into BW25113 pspB to generate strains NB27273-CDY0105 (expressing OXA-18) and NB27273-CDY0048 (expressing TEM-10).

E. coli (AmpC) = test: microbe, parasite or virus in culture; details: for MIC of aztreonam with beta-lactamase inhibitor: AZ + BLI at 2 μg/mL; for Activity of Beta-Lactam 5 with beta-lactamase inhibitor: Beta-Lactam 5 + BLI at 2 μg/mL; for MIC of ceftazidime with beta-lactamase inhibitor: Ceft + BLI at 2 μg/mL; for MIC of meropenem with beta-lactamase inhibitor: Mero + BLI at 2 μg/mL
Protocol: as §1, with “MIC. Performance of the assay was monitored by testing aztreonam against laboratory quality control strains in accordance with guidelines of the CLSI.” for “MIC.”
as §2
The gene encoding AmpC was PCR amplified from the genome of strain P. aeruginosa PAO1 (NB52019) (GenBank ID U5R279) using primer pair E252 (gccCTCGAGggcgaggccccggcggatcgc) (SEQ ID NO: 17) and E253 (tgaGAATTCtcagcgcttcagcggcacct) (SEQ ID NO: 18).
The PCR products were then digested with XhoI and EcoRI and ligated into similarly digested plasmid pAH63-pstS(BlaP). Plasmid pAH63-pstS(BlaP) is a derivative of plasmid pAH63 (J Bacteriol: 183(21): 6384-6393) made by cloning the TEM-1 (bla) promoter and signal peptide encoding region from plasmid pBAD (J Bacteriol. 1995 July 177(14):4121-30) into plasmid pAH63. This fragment was PCR amplified from pBAD using primer pair E192 (ttcaCTGCAGtgaacgttgcgaagcaacggC) (SEQ ID NO:19) and E194 (TCGAggatcctcgagagcaaaaacaggaaggcaaaatgccg) (SEQ ID NO:20), digested with PstI and BamHI and inserted into similarly digested plasmid pAH63. Therefore, expression of beta-lactamases from pAH63-pstS(BlaP) based constructs is constitutive and the signal sequence is provided to direct these proteins to the periplasm. Plasmid pAH63 based vectors are used for insertion into the genome in single copy, however, to provide higher expression levels to allow more sensitive detection of the susceptibility of compounds to the expressed beta-lactamases, the expression inserts contained in these vectors were moved to the replicative multicopy vector pBAD-Kan (J Bacteriol. 1995 July 177(14):4121-30). To accomplish this, the inserts encompassing the beta-lactamase genes, with the associated TEM promoter and signal sequences, were PCR amplified from their corresponding vectors using primer E268 (ccgTCTAGAcggatggcctttttgcgtttc) (SEQ ID NO:21) and E202 (aatcGAATTCttactgaccattaacgcccaagc) (SEQ ID NO:22) for the KPC2 construct, E204 (aatcGAATTCttaacgctgccagtgctcaatc) (SEQ ID NO:23) for the SHV-12 construct and E203 (aatcGAATTCttacagaccgtcggtgacaatc) (SEQ ID NO:24) for the CTX-M-15 construct. These fragments were then digested with XbaI and EcoRI, and each was inserted into pBAD18-kan that had been digested with the same enzymes to generate multicopy vectors expressing KPC-2, SHV-12 and CTX-M-15, respectively. […]

## NC(=O)[C@@H]1CC[C@@H]2CN1C(=O)N2OS(=O)(=O)O [Avibactam]
[1]
  Activity of aztreonam with beta-lactamase inhibitor: 8 µg/mL
[2]
  Activity of aztreonam with beta-lactamase inhibitor: 2 µg/mL
K. pneumoniae ATCC 43816
  MIC: 32 µg/mL (≈ 121 µM)
P. aeruginosa ATCC 27853
  MIC: > 64 µg/mL
E. coli ATCC 25922
  MIC: 16 µg/mL (≈ 60.3 µM)
E. coli (OXA-18)
  MIC of aztreonam with beta-lactamase inhibitor: 1 µg/mL
  Activity of Beta-Lactam 5 with beta-lactamase inhibitor: 0.125 µg/mL
  MIC of ceftazidime with beta-lactamase inhibitor: 0.5 µg/mL
  MIC of meropenem with beta-lactamase inhibitor: ≤0.06 µg/mL
  MIC of piperacillin with beta-lactamase inhibitor: 2 µg/mL
E. coli (AmpC)
  MIC of aztreonam with beta-lactamase inhibitor: ≤0.06 µg/mL
  Activity of Beta-Lactam 5 with beta-lactamase inhibitor: 0.125 µg/mL
  MIC of ceftazidime with beta-lactamase inhibitor: 0.125 µg/mL
  MIC of meropenem with beta-lactamase inhibitor: ≤0.06 µg/mL

## O=C1NC[C@@H]2C[C@@H]3CN(C(=O)N3OS(=O)(=O)[O-])[C@H]12.[Na+] [Example 1, Sodium (4R,5aS,8aS)-2,8-dioxohexahydro-2H-1,4-methanopyrrolo[3,4-d][1,3]diazepin-3(4H)-yl sulfate]
[1]
  Activity of aztreonam with beta-lactamase inhibitor: 4 µg/mL
[2]
  Activity of aztreonam with beta-lactamase inhibitor: 0.25 µg/mL
K. pneumoniae ATCC 43816
  MIC: > 64 µg/mL
P. aeruginosa ATCC 27853
  MIC: > 64 µg/mL
E. coli ATCC 25922
  MIC: > 64 µg/mL
E. coli (OXA-18)
  MIC of aztreonam with beta-lactamase inhibitor: 1 µg/mL
  Activity of Beta-Lactam 5 with beta-lactamase inhibitor: 0.25 µg/mL
  MIC of ceftazidime with beta-lactamase inhibitor: 0.5 µg/mL
  MIC of meropenem with beta-lactamase inhibitor: ≤0.06 µg/mL
  MIC of piperacillin with beta-lactamase inhibitor: 2 µg/mL
E. coli (AmpC)
  MIC of aztreonam with beta-lactamase inhibitor: 0.125 µg/mL
  Activity of Beta-Lactam 5 with beta-lactamase inhibitor: 0.25 µg/mL
  MIC of ceftazidime with beta-lactamase inhibitor: 0.25 µg/mL
  MIC of meropenem with beta-lactamase inhibitor: ≤0.06 µg/mL

## O=C(NC1CCNCC1)[C@@H]1CC[C@@H]2CN1C(=O)N2OS(=O)(=O)O [Relebactam]
[1]
  Activity of aztreonam with beta-lactamase inhibitor: >64 µg/mL
[2]
  Activity of aztreonam with beta-lactamase inhibitor: 8 µg/mL
K. pneumoniae ATCC 43816
  MIC: > 64 µg/mL
P. aeruginosa ATCC 27853
  MIC: > 64 µg/mL
E. coli ATCC 25922
  MIC: > 64 µg/mL
E. coli (OXA-18)
  MIC of aztreonam with beta-lactamase inhibitor: >64 µg/mL
  Activity of Beta-Lactam 5 with beta-lactamase inhibitor: 0.25 µg/mL
  MIC of ceftazidime with beta-lactamase inhibitor: >64 µg/mL
  MIC of meropenem with beta-lactamase inhibitor: ≤0.06 µg/mL
  MIC of piperacillin with beta-lactamase inhibitor: >32 µg/mL
E. coli (AmpC)
  MIC of aztreonam with beta-lactamase inhibitor: 0.125 µg/mL
  Activity of Beta-Lactam 5 with beta-lactamase inhibitor: 0.25 µg/mL
  MIC of ceftazidime with beta-lactamase inhibitor: 0.125 µg/mL
  MIC of meropenem with beta-lactamase inhibitor: ≤0.06 µg/mL
